Reference: patent US20250333397A1 (REMIX THERAPEUTICS INC., priority 2021, published 2025)
Read-outs that look alike come from different tables or passages of the source.

Key:
Type in all cases: cell-based, human
SMN2 mRNA = assay: RT-qPCR splicing assay panel, SMN2 canonical junction (CJ) mRNA; conditions: Homo sapiens, canonical junction (CJ) mRNA, RT-qPCR panel, Table 4A; read-out: SMN2, decrease in CJ mRNA levels, IC50
Procedure, shortened: (§1)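 CJ and AJ junction levels were quantified by RT-qPCR on lysates, with housekeeper ΔCt normalized to DMSO (ΔΔCt) and expressed as RQ = 2^(-ΔΔCt). Before lysis, K562 or A673 cells had 24 h compound exposure at 37 °C. Dosing was 11 points, 3-fold, from 10 uM final, with DMSO at most 0.25%.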

HTT mRNA = assay: RT-qPCR splicing assay, HTT canonical (CJ) and alternative (AJ) junction mRNA; conditions: Homo sapiens; for AC50: read-out: HTT AJ (AC50, increase in AJ mRNA)
Procedure, shortened: as §1

MYB mRNA = assay: RT-qPCR splicing assay, MYB canonical (CJ) and alternative (AJ) junction mRNA; conditions: for AC50: read-out: MYB AJ (AC50, increase in AJ mRNA)
Procedure, shortened: as §1

Target C mRNA = assay: RT-qPCR splicing assay panel, Target C canonical junction (CJ) mRNA; conditions: Homo sapiens, canonical junction (CJ) mRNA, RT-qPCR panel, Table 4A; read-out: Target C, decrease in CJ mRNA levels, IC50
Procedure, shortened: as §1

[1] = 24 h, Table 3A, A673 or K562 cells, 24 h treatment
[2] = 24 h, Table 3A, A673 or K562 cells, 24 h treatment, read-out: HTT CJ (IC50, decrease in CJ mRNA)
[3] = canonical junction (CJ) mRNA, RT-qPCR panel, Table 4A, read-out: HTT, decrease in CJ mRNA levels, IC50
[4] = Homo sapiens, 24 h, Table 3A, A673 or K562 cells, 24 h treatment
[5] = Homo sapiens, 24 h, Table 3A, A673 or K562 cells, 24 h treatment, read-out: MYB CJ (IC50, decrease in CJ mRNA)
[6] = Homo sapiens, canonical junction (CJ) mRNA, RT-qPCR panel, Table 4A, read-out: MYB, decrease in CJ mRNA levels, IC50

Row | SMILES | IC50 (SMN2 mRNA) | AC50 (HTT mRNA; [1]) | IC50 (HTT mRNA; [2]) | IC50 (HTT mRNA; [3]) | AC50 (MYB mRNA; [4]) | IC50 (MYB mRNA; [5]) | IC50 (MYB mRNA; [6]) | IC50 (Target C mRNA) | AC50 (MYB mRNA; Table 3A, A673 or K562 cells, 24 h treatment)
1 | COc1cc(-c2ccc(-c3ccc(N4CC[C@@H](NC5(C)CCC5)C4)nn3)c(O)c2)ncn1 [Compound 383, 5-(6-methoxypyrimidin-4-yl)-2-{6-[(3R)-3-[(1-methylcyclobutyl)amino]pyrrolidin-1-yl]pyridazin-3-yl}phenol] | < 100 nM | < 100 nM | < 100 nM | < 100 nM | 100 to 1000 nM | 100 to 1000 nM | 100 to 1000 nM | < 100 nM | –
2 | COc1cc(-c2ccc(-c3ccc(N4CC[C@H](NC5(C)CCC5)C4)nn3)c(O)c2)ncn1 [Compound 384, 5-(6-methoxypyrimidin-4-yl)-2-{6-[(3S)-3-[(1-methylcyclobutyl)amino]pyrrolidin-1-yl]pyridazin-3-yl}phenol] | < 100 nM | < 100 nM | < 100 nM | < 100 nM | 100 to 1000 nM | 100 to 1000 nM | 100 to 1000 nM | 100 to 1000 nM | –
3 | Cc1ncc(-c2cc(O)c(-c3ccc(OC4CC(C)(C)NC(C)(C)C4)nn3)cc2F)s1 [Compound 385] | < 100 nM | < 100 nM | < 100 nM | < 100 nM | 100 to 1000 nM | 100 to 1000 nM | 100 to 1000 nM | 100 to 1000 nM | –
4 | Cc1nc(C)c(-c2cc(O)c(-c3ccc(N4CC[C@H](NC5CCC5)C4)nn3)cc2F)s1 [Compound 386] | 100 to 1000 nM | 1000 to 10000 nM | 100 to 1000 nM | 100 to 1000 nM | 1000 to 10000 nM | 1000 to 10000 nM | 1000 to 10000 nM | 1000 to 10000 nM | –
5 | Cc1nc(C)c(-c2cc(O)c(-c3ccc(N4CC[C@@H](NC5CCC5)C4)nn3)cc2F)s1 [Compound 387] | 100 to 1000 nM | 1000 to 10000 nM | 100 to 1000 nM | 100 to 1000 nM | 1000 to 10000 nM | 1000 to 10000 nM | 1000 to 10000 nM | 1000 to 10000 nM | –
6 | Oc1cc(-c2ccnnc2)ccc1-c1ccc(N2CCC(NC3CCC3)C2)nn1 (centres unmarked) [Compound 388] | 100 to 1000 nM | 1000 to 10000 nM | 1000 to 10000 nM | 1000 to 10000 nM | 1000 to 10000 nM | 1000 to 10000 nM | 1000 to 10000 nM | 1000 to 10000 nM | –
7 | Oc1cc(-c2cnc(C(F)F)s2)c(F)cc1-c1ccc(N2CCC(NC3CCC3)C2)nn1 (centres unmarked) [Compound 389] | 100 to 1000 nM | 1000 to 10000 nM | 100 to 1000 nM | 100 to 1000 nM | 1000 to 10000 nM | 1000 to 10000 nM | 1000 to 10000 nM | 1000 to 10000 nM | –
8 | Oc1cc(-c2cnc(C(F)(F)F)s2)c(F)cc1-c1ccc(N2CCC(NC3CCC3)C2)nn1 (centres unmarked) [Compound 390] | 1000 to 10000 nM | > 10000 nM | > 10000 nM | > 10000 nM | > 10000 nM | > 10000 nM | > 10000 nM | > 10000 nM | –
9 | Cc1ncc(-c2cc(O)c(-c3ccc(N4CCC(NC5CCCC5)C4)nn3)cc2F)s1 (centres unmarked) [Compound 391] | < 100 nM | < 100 nM | < 100 nM | < 100 nM | 100 to 1000 nM | < 100 nM | < 100 nM | < 100 nM | –
10 | Cc1ncc(-c2cc(O)c(-c3ccc(N4CC[C@@H](NCC5CC5)C4)nn3)cc2F)s1 [Compound 392] | < 100 nM | < 100 nM | < 100 nM | < 100 nM | < 100 nM | < 100 nM | < 100 nM | < 100 nM | –
11 | Cc1ncc(-c2cc(O)c(-c3ccc(N4CC[C@H](NCC5CC5)C4)nn3)cc2F)s1 [Compound 393] | < 100 nM | < 100 nM | < 100 nM | < 100 nM | < 100 nM | < 100 nM | < 100 nM | < 100 nM | –
12 | Cc1ncc(-c2cc(O)c(-c3ccc(N4CC[C@@H](NCC5CCC5)C4)nn3)cc2F)s1 [Compound 395] | < 100 nM | 100 to 1000 nM | < 100 nM | < 100 nM | 100 to 1000 nM | 100 to 1000 nM | 100 to 1000 nM | 100 to 1000 nM | –
13 | COc1cc(-c2cc(O)c(-c3ccc(N4CC[C@@H](NC(C)(C)C)C4)nn3)cc2F)ncn1 [Compound 396] | < 100 nM | 1000 to 10000 nM | 100 to 1000 nM | 100 to 1000 nM | 1000 to 10000 nM | 1000 to 10000 nM | 1000 to 10000 nM | 1000 to 10000 nM | –
14 | COc1cc(-c2cc(O)c(-c3ccc(N4CC[C@H](NC(C)(C)C)C4)nn3)cc2F)ncn1 [Compound 397] | 100 to 1000 nM | 100 to 1000 nM | 100 to 1000 nM | 100 to 1000 nM | 1000 to 10000 nM | 100 to 1000 nM | 100 to 1000 nM | 100 to 1000 nM | –
15 | Cc1nc(-c2cc(O)c(-c3ccc(N4CCC(NC5CCC5)C4)nn3)cc2F)cs1 (centres unmarked) [Compound 398] | 1000 to 10000 nM | 1000 to 10000 nM | 1000 to 10000 nM | 1000 to 10000 nM | 1000 to 10000 nM | 1000 to 10000 nM | 1000 to 10000 nM | 1000 to 10000 nM | –
16 | Cc1nnc(-c2cc(O)c(-c3ccc(N4CC[C@H](NCC5CC5)C4)nn3)cc2F)s1 [Compound 401] | 100 to 1000 nM | 100 to 1000 nM | 100 to 1000 nM | 100 to 1000 nM | 1000 to 10000 nM | 1000 to 10000 nM | 1000 to 10000 nM | 100 to 1000 nM | –
17 | Cc1nnc(-c2cc(O)c(-c3ccc(N4CC[C@@H](NCC5CC5)C4)nn3)cc2F)s1 [Compound 402] | 100 to 1000 nM | 100 to 1000 nM | 100 to 1000 nM | 100 to 1000 nM | 1000 to 10000 nM | 1000 to 10000 nM | 1000 to 10000 nM | 1000 to 10000 nM | –
18 | COc1cc(-c2ccc(-c3ccc(N4CCC(N[C@H]5C[C@@H](O)C5)C4)nn3)c(O)c2)cnn1 (some centres unmarked) [Compound 403, 5-(6-methoxypyridazin-4-yl)-2-[6-(3-{[(1s,3s)-3-hydroxycyclobutyl]amino}pyrrolidin-1-yl)pyridazin-3-yl]phenol] | < 100 nM | 100 to 1000 nM | < 100 nM | < 100 nM | 1000 to 10000 nM | 100 to 1000 nM | 100 to 1000 nM | 100 to 1000 nM | –
19 | COc1cc(-c2ccc(-c3ccc(N4CCC(N[C@H]5C[C@@H](OC)C5)C4)nn3)c(O)c2)cnn1 (some centres unmarked) [Compound 404, 5-(6-methoxypyridazin-4-yl)-2-[6-(3-{[(1s,3s)-3-methoxycyclobutyl]amino}pyrrolidin-1-yl)pyridazin-3-yl]phenol] | < 100 nM | 100 to 1000 nM | < 100 nM | < 100 nM | 1000 to 10000 nM | 100 to 1000 nM | 100 to 1000 nM | 100 to 1000 nM | –
20 | COc1nc(-c2ccc(N3CC[C@@H](NC(C)(C)C)C3)nn2)ccc1-c1cnc(C)s1 [Compound 405] | < 100 nM | < 100 nM | < 100 nM | < 100 nM | < 100 nM | < 100 nM | < 100 nM | < 100 nM | –
21 | CN([C@@H]1CCN(c2ccc(-c3ccc(-c4cn[nH]c4)cc3O)nn2)C1)C(C)(C)C [Compound 406, 2-{6-[(3R)-3-[tert-butyl(methyl)amino]pyrrolidin-1-yl]pyridazin-3-yl}-5-(1H-pyrazol-4-yl)phenol] | 100 to 1000 nM | 100 to 1000 nM | 100 to 1000 nM | 100 to 1000 nM | – | 100 to 1000 nM | 100 to 1000 nM | 100 to 1000 nM | 1000 to 10000 nM
22 | COc1cc(-c2ccc(-c3ccc(N4CC[C@H](N[C@H]5C[C@@H](F)C5)C4)nn3)c(O)c2)ncn1 [Compound 407, 5-(6-methoxypyrimidin-4-yl)-2-{6-[(3R)-3-{[(1s,3s)-3-fluorocyclobutyl]amino}pyrrolidin-1-yl]pyridazin-3-yl}phenol] | 100 to 1000 nM | 100 to 1000 nM | 100 to 1000 nM | 100 to 1000 nM | 100 to 1000 nM | 100 to 1000 nM | 100 to 1000 nM | 100 to 1000 nM | –
23 | COc1cc(-c2ccc(-c3ccc(N4CC[C@@H](N[C@H]5C[C@@H](F)C5)C4)nn3)c(O)c2)ncn1 [Compound 408, 5-(6-methoxypyrimidin-4-yl)-2-{6-[(3S)-3-{[(1s,3s)-3-fluorocyclobutyl]amino}pyrrolidin-1-yl]pyridazin-3-yl}phenol] | < 100 nM | 100 to 1000 nM | < 100 nM | < 100 nM | 100 to 1000 nM | 100 to 1000 nM | 100 to 1000 nM | 100 to 1000 nM | –
24 | CN(C)c1cc(-c2ccc(-c3ccc(N4CCC(NC5CCC5)C4)nn3)c(O)c2)cnn1 (centres unmarked) [Compound 409] | > 10000 nM | > 10000 nM | > 10000 nM | > 10000 nM | > 10000 nM | > 10000 nM | > 10000 nM | > 10000 nM | –
25 | Cc1ncc(-c2cc(O)c(-c3ccc(N4CCC(NC5CCCCC5)C4)nn3)cc2F)s1 (centres unmarked) [Compound 410] | < 100 nM | < 100 nM | < 100 nM | < 100 nM | 100 to 1000 nM | 1000 to 10000 nM | 1000 to 10000 nM | 100 to 1000 nM | –
